From US7238701B2, “Substituted tetrahydrobenzothienopyrimidinamine compounds useful for treating hyper-proliferative disorders” (Bayer Pharmaceuticals Corporation, priority 2003, dated 2007)

Legend:
[1] = system: BT474 (human breast carcinoma); assay: In vitro tumor cell proliferation assay (Cell Titer-Glo luminescent cell viability), BT474 cells; assay type: cell-based; conditions: BT-474, 72 hours drug exposure, 10% Fetal Bovine Serum, ATP luminescence readout, read-out: IC50 (50% inhibition of cell proliferation)
Excerpt: (§1) In vitro Tumor Cell Proliferation Assay
(§2) The tumor cell proliferation assay used to test the compounds of the present invention involves a readout called Cell Titer-Glow® Luminescent Cell Viability Assay developed by Promega (Cunningham, B A “A Growing Issue: Cell Proliferation Assays, Modern kits ease quantification of cell growth” The Scientist 2001, 15(13), 26, and Crouch, S P et al., “The use of ATP bioluminescence as a measure of cell proliferation and cytotoxicity” Journal of Immunological Methods 1993, 160, 81–88), that measures inhibition of cell proliferation. Generation of a luminescent signal corresponds to the amount of ATP present, which is directly proportional to the number of metabolically active (proliferating) cells.
(§3) A431cells (human epidermoid carcinoma, ATCC # HTB-20) and BT474 (human breast carcinoma, ATCC # CRL-1555) were plated at a density of 2.5×10^3 cells/well in 96 well black-clear bottom tissue culture plates in RPMI media with 10% Fetal Bovine Serum and incubated at 37° C. Twenty-four hours later, test compounds are added at a final concentration range from as high 100 μM to as low 64 pM depend on the activities of the tested compounds in serial dilutions at a final DMSO concentration of 0.1%. Cells were incubated for 72 hours at 37° C. in complete growth media after addition of the test compound. After 72 hours of drug exposure, the plates were equilibrated to room temperature for approximately 30 min. Then, using a Promega Cell Titer Glo Luminescent® assay kit, lysis buffer containing 100 microliters of the enzyme luciferase and its substrate, luciferin mixture, was added to each well. The plates were mixed for 2 min on orbital shaker to ensure cell lysis and incubated for 10 min at room temperature to stabilize luminescence signal. The samples were read on VICTOR 2 using Luminescence protocol, and analyzed with Analyze5 software to generate IC50 values.

[2] = system: A431cells (human epidermoid carcinoma); assay: In vitro tumor cell proliferation assay (Cell Titer-Glo luminescent cell viability), A431 cells; assay type: cell-based; conditions: A-431, 72 h, 72 hours drug exposure, 10% Fetal Bovine Serum, ATP luminescence readout, read-out: IC50 (50% inhibition of cell proliferation)
Excerpt: as §1, §2, §3

Structure (SMILES) | IC50 [1] [µM] | IC50 [2] [µM]
O=C(O)C1CCc2c(sc3ncnc(Nc4cccc(Br)c4)c23)C1 (centres unmarked) [Example 1, 4-[(3-bromophenyl)amino]-5,6,7,8-tetrahydro[1]benzothieno[2,3-d]pyrimidine-7-carboxylic acid] | < 50 | < 50
O=C(O)C1CCc2c(sc3ncnc(Nc4ccc(Br)cc4F)c23)C1 (centres unmarked) [Example 2, 4-[(4-bromo-2-fluorophenyl)amino]-5,6,7,8-tetrahydro[1]benzothieno[2,3-d]pyrimidine-7-carboxylic acid] | < 5 | < 50
O=C(C1CCc2c(sc3ncnc(Nc4ccc(F)c(Cl)c4)c23)C1)N1CCCCC1 (centres unmarked) [Example 3, N-(3-chloro-4-fluorophenyl)-7-(1-piperidinylcarbonyl)-5,6,7,8-tetrahydro[1]benzothieno[2,3-d]pyrimidin-4-amine] | < 50 | < 50
Fc1ccc(Nc2ncnc3sc4c(c23)CCC(CN2CCCCC2)C4)cc1Cl (centres unmarked) [Example 4, N-(3-chloro-4-fluorophenyl)-7-(1-piperidinylmethyl)-5,6,7,8-tetrahydro[1]benzothieno[2,3-d]pyrimidin-4-amine] | < 5 | < 5
COCCN(C)C(=O)C1CCc2c(sc3ncnc(Nc4ccc(F)c(Cl)c4)c23)C1 (centres unmarked) [Example 8, 4-[(3-chloro-4-fluorophenyl)amino]-N-(2-methoxyethyl)-N-methyl-5,6,7,8-tetrahydro[1]benzothieno[2,3-d]pyrimidine-7-carboxamide] | < 50 | < 50

Continued, values first:

IC50 [1] [µM] | IC50 [2] [µM] | Structure (SMILES)
< 50 | < 50 | Fc1ccc(Nc2ncnc3sc4c(c23)CCC(CN2CCOCC2)C4)cc1Cl (centres unmarked) [Example 12, N-(3-chloro-4-fluorophenyl)-7-(4-morpholinylmethyl)-5,6,7,8-tetrahydro[1]benzothieno[2,3-d]pyrimidin-4-amine]
< 5 | < 5 | CN1CCN(CC2CCc3c(sc4ncnc(Nc5ccc(F)c(Cl)c5)c34)C2)CC1 (centres unmarked) [Example 15, N-(3-chloro-4-fluorophenyl)-7-[(4-methyl-1-piperazinyl)methyl]-5,6,7,8-tetrahydro[1]benzothieno[2,3-d]pyrimidin-4-amine]
– | < 5 | CN1CCN(CC2CCc3c(sc4ncnc(Nc5cccc(Br)c5)c34)C2)CC1 (centres unmarked) [Example 26, N-(3-bromophenyl)-7-[(4-methyl-1-piperazinyl)methyl]-5,6,7,8-tetrahydro[1]benzothieno[2,3-d]pyrimidin-4-amine]
< 5 | – | COCCN(C)CC1CCc2c(sc3ncnc(Nc4cccc(Br)c4)c23)C1 (centres unmarked) [Example 36, N-(3-bromophenyl)-7-{[(2-methoxyethyl)(methyl)amino]methyl}-5,6,7,8-tetrahydro[1]benzothieno[2,3-d]pyrimidin-4-amine]
< 5 | – | CN1CCN(C(=O)C2CCc3c(sc4ncnc(Nc5ccc(OCc6ccccc6)cc5)c34)C2)CC1 (centres unmarked) [Example 43, N-[4-(benzyloxy)phenyl]-7-[(4-methyl-1-piperazinyl)carbonyl]-5,6,7,8-tetrahydro[1]benzothieno[2,3-d]pyrimidin-4-amine]
– | < 50 | Cc1ccc(Nc2ncnc3sc4c(c23)CCC(C(=O)O)C4)cc1O (centres unmarked) [Example 46, 4-[(3-hydroxy-4-methylphenyl)amino]-5,6,7,8tetrahydro[1]benzothieno[2,3-d]pyrimidine-7-carboxylic acid]
< 5 | – | OCCC1CCc2c(sc3ncnc(Nc4ccc(OCc5ccc(F)cc5)c(Cl)c4)c23)C1 (centres unmarked) [Example 155, 2-[4-({3-chloro-4-[(4-fluorobenzyl)oxy]phenyl}amino)-5,6,7,8-tetrahydro[1]benzothieno[2,3-d]pyrimidin-7-yl]ethanol]
< 5 | – | CS(=O)(=O)OCCC1CCc2c(sc3ncnc(Nc4ccc(OCc5ccc(F)cc5)c(Cl)c4)c23)C1 (centres unmarked) [Example 156, 2-[4-({3-chloro-4-[(4-fluorobenzyl)oxy]phenyl}amino)-5,6,7,8-tetrahydro[1]benzothieno[2,3-d]pyrimidin-7-yl]ethyl methanesulfonate]
